# Laboratory results as given in patent US7951775B2, “Methods and pharmaceutical compositions for GnRH-I and GnRH-II modulation of T-cell activity, adhesion, migration and extravasation” (priority 2001, dated 2011).
# “Also recorded” adds a separate entry of the source.
# B1: GnRH-II: unique ten amino acid long neuropeptide, 70% homologous in peptide structure to GnRH-I, encoded by its own gene (peptide)
# peptide: QHWSHGWYPGGKRALSSAQDPQNALRPPGRALDTAAGSPVQTAHGLPSDALAPLDDSMPWEGRTTAQWSLHRKRHLARTLLTAAREPRPAPPSSNKV
# Legend:
# normal human T-cells [1] = assay: T-cell adhesion to laminin assay; assay type: cell-based; settings: 10 nM, 48 hours pretreatment; PMA 10 ng/ml positive control; four donors
# Experimental: Adhesion of T-cells to laminin was assayed as follows: normal human T-cells, purified from a fresh blood sample, were suspended (1×10^6 cells/ml) in rest medium (RPMI-1640, supplemented with 10% fetal calf serum (Sigma Chemical Co., St. Louis, Mo.), 1% antibiotics, 1% glutamine (Biological Industries, Beit Haemek, Israel) and 0.4% fungizone (GibcoBRL, Life Technologies Ltd., Paisley, Scotland)). The cells were then supplemented with 10 nM GnRH-I or GnRH-II and incubated for variable periods of time (0.5-72 hours, 37° C., 7.5% CO2 humidified incubator). Following incubation the cells were washed and resuspended in adhesion medium (RPMI-1640 supplemented with 0.1% bovine serum albumin (BSA, Sigma)). […] The optical density (OD) was measured at 405 nm in a standard ELISA reader. […]
# To study the functional consequences of the increase in the 67 kDa LR expression level following GnRH stimulation, the ability of GnRH-treated normal human T-cells to adhere to laminin was assessed. […] In parallel, increasing numbers of untreated cells were seeded on separate plates, in order to establish a standard curve, enabling the relation of results obtained in units of fluorescence intensity (OD) to actual number of cells.
# normal human T-cells [2] = assay: In-vitro chemotactic migration assay towards SDF-1 through laminin-coated filters; assay type: cell-based; settings: 10 nM, at least 18 h pretreatment; four independent experiments
# Experimental: Normal human T-cells (1×10^6 cells/well in rest medium) were pretreated with GnRH-I or GnRH-II (10 nM, >18 hours, 37° C., 7.5% CO2 humidified incubator), washed, resuspended in adhesion medium and fluorescently labeled (50 μg/ml, 30 minutes, 37° C., 7.5% CO2 humidified incubator) with 2′,7′-bis-(2-carboxyethyl)-5-(and-6)-carboxyfluorescein acetoxymethyl (BCECF AM, Molecular Probes, Eugene, Oreg.). The cells were then washed, resuspended in adhesion medium, and added to the upper chambers (2×10^5 cells per 100 μl well) of a 24-well chemotaxis microchamber plate (Corning Inc., Corning, N.Y.). The two compartments of the microchambers were separated by polycarbonate filters ([…] pore size) pre-coated with laminin ([…], about 1.5 hour, 37° C.). […]
# Adhesion of T-cells to components of the basement membrane is a crucial step in the series of events that eventually enable T-cells to migrate and extravasate from the blood stream to specific tissues. […] To determine whether GnRH can induce T-cells to migrate towards a chemoattractant, we made use of the Boyden chamber migration assay and scored the number of fluorescence-labeled normal human T-cells which migrated from a medium-containing upper chamber to a chemoattractant-containing lower chamber. […]
# EL-4 T-lymphoma cells = assay: Homing of GnRH-treated EL-4 T-lymphoma in vivo into specific organs of normal syngeneic mice; parameters: species or system mouse; settings: EL-4 cells treated ex vivo 10 nM; for mean number of EL-4 labeled cells detected in the bone marrow: 48 h, C57BL/6 recipients n=5, untreated 149825±8424; for increase in entry into bone marrow over untreated control cells: C57BL/6 recipients; for entry of EL-4 cells into the spleen / level of EL-4 cells entry into thymus, kidney and liver, or their number in the plasma: vs untreated cells
# Experimental: Mouse EL-4 T-lymphoma cells were incubated without any further treatment or with either GnRH-I or GnRH-II (10 nM) for […] (37° C., 7.5% CO2 in a humidified incubator) and then washed, counted, and fluorescently labeled with BCECF AM (30 minutes 37° C., 7.5% CO2 humidified incubator), as described above.
# Normal syngeneic C57BL/6 female recipient mice were then subjected to 300 rad total body irradiation, and several hours later inoculated I.P with 5×10^6 cells/mouse of either untreated or GnRH-treated EL-4 lymphoma cells. In parallel, samples from the treated and GnRH inoculated EL-4 cells were tested by double immunofluorescence (as described above) for the level of their 67 kD LR and TCRαβ. After […], the spleen, thymus, kidney, liver, bone marrow, and a fixed volume of blood were removed from the recipient mice into tubes containing 10 ml PBS, and cell suspensions were prepared from each organ of each individual mouse. Following further dilution in PBS for the kidney (1:3) and liver (1:10), the number of fluorescent cells, as well as the total number of cells in each tube, were counted by flow cytometry (FACSORT).
# To assess whether exposure of EL-4 T-lymphoma cells to GnRH modulated their immigration and organ invasion profiles in vivo, the EL-4 cells were treated ex vivo with GnRH-I or GnRH-II (10 nM, 48 h), loaded with a fluorescent dye, and inoculated into normal syngeneic C57BL/6 (H-2b) recipient mice. After 48 hours, the spleen, thymus, kidney, liver, bone marrow, and a fixed volume of blood were removed, individual cells suspensions were prepared and the number of labeled immigrating cells, as well as the total number of cells present in each organ (labeled+non-labeled) was counted by flow cytometry.
Molecule,T-cell adhesion to laminin (normal human T-cells [1]),migration of T-cells towards chemoattractant SDF-1 (normal human T-cells [2]),mean number of EL-4 labeled cells detected in the bone marrow (EL-4 T-lymphoma cells),increase in entry into bone marrow over untreated control cells (EL-4 T-lymphoma cells) [%],entry of EL-4 cells into the spleen (EL-4 T-lymphoma cells),"level of EL-4 cells entry into thymus, kidney and liver, or their number in the plasma (EL-4 T-lymphoma cells)"
pGlu-His-Trp-Ser-Tyr-Gly-Leu-Arg-Pro-Gly-NH2 [GnRH-I],as efficiently as PMA; also recorded: as markedly as does PMA,directly increase the migration potential; also recorded: significantly augments,321400±15165,115,significant enhanced entry,did not affect
B1,as efficiently as PMA; also recorded: as markedly as does PMA,directly increase the migration potential; also recorded: significantly augments,219280±14003,46,significant enhanced entry,did not affect
